Data from patent publication US9073918B2, “Pyrazolo[4,3-b]pyridine-7-amine inhibitors of ALK5” (Takeda Pharmaceutical Company Limited, priority 2010, dated 2015).
pIC50: −log10 of the molar value.

The molecules below were run against T1, TGF-β R1 ALK5 (Homo sapiens, UniProt P36897) (assay: In vitro inhibition of ALK5 (LanthaScreen activity assay, TR-FRET)).
T1 construct: purchased Invitrogen PV5837
T1 sequence (P36897 34-503): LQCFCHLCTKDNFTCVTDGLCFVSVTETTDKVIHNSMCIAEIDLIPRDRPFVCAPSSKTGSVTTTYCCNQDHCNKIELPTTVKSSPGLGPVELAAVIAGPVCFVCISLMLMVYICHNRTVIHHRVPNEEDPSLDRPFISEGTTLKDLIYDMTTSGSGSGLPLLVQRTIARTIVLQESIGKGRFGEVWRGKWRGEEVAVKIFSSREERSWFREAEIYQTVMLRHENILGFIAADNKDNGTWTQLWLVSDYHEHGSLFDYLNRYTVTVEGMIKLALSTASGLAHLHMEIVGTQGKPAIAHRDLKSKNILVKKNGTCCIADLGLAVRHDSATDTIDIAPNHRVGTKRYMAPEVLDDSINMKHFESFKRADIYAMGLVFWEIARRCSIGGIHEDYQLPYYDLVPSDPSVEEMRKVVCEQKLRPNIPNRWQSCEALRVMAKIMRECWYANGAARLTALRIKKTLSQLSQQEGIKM
Assay type: biochemical
Method: Test compounds were screened for TGF-β R1 ALK5 inhibition by use of a LanthaScreen™ activity assay (PV5837 Invitrogen, Invitrogen Corp. Madison, Wis.).
In brief, the assay procedure was as follows:
Solutions of test compounds were prepared in DMSO and diluted two-fold serially.
Assays were incubated for 90 minutes at room temperature and then quenched by the addition of 60 mM EDTA and 8 nM Terbium labeled anti-pSMAD3 Antibody (M4337 from Invitrogen) giving a final concentration of 15 mM EDTA and 2 nM Terbium labeled anti-pSMAD3 Antibody. Phosphorylated peptide product was quantified by measuring an increase in TR-FRET on a BMG LABTECH PHERA star plus. Response is defined as the ratio of Channel A/Channel B. The response of a blank (uninhibited) using vehicle alone is also determined. Enzyme activity was defined as the response of uninhibited enzyme activity minus the response of assays containing no enzyme. The percent inhibition of ALK5 at a given compound concentration is defined as: 100%×[1−(response compound/response blank)]
where response compound is defined as the enzyme activity in the presence of test compound and response blank is defined as the uninhibited enzyme activity. The pIC50 value (negative log of the molar concentration of the compound that produces 50% inhibition) of a test compound is calculated by non-linear least squares curve fitting of the equation: Percent Inhibition=100%/(1+(10−pIC50/10 log [I])).
Where inhibition was measured in multiple experiments the value in Table 1 is an average. N.T. means not tested.

SMILES | pIC50
Cc1cnc(-c2cc(Cl)ccc2F)nc1Nc1ccnc2cnn(CC(N)=O)c12 [Example 3, 2-(7-(2-(5-chloro-2-fluorophenyl)-5-methylpyrimidin-4-ylamino)-1H-pyrazolo[4,3-b]pyridin-1-yl)acetamide] | 8.20
Cc1cnc(-c2cc(Cl)ccc2F)nc1Nc1ccnc2cn(CC(N)=O)nc12 [Example 4, 2-(7-(2-(5-chloro-2-fluorophenyl)-5-methylpyrimidin-4-ylamino)-2H-pyrazolo[4,3-b]pyridin-2-yl)acetamide] | 8.20
Cc1ccc(F)c(-c2cc(Nc3ccnc4cn(CC(C)(C)O)nc34)c(C)cn2)n1 [Example 8, 1-(7-(3′-fluoro-5,6′-dimethyl-2,2′-bipyridin-4-ylamino)-2H-pyrazolo[4,3-b]pyridin-2-yl)-2-methylpropan-2-ol] | 6.60
Cc1ccc(F)c(-c2cc(Nc3ccnc4cn(CCO)nc34)c(C)cn2)n1 [Example 9, 2-(7-(3′-fluoro-5,6′-dimethyl-2,2′-bipyridin-4-ylamino)-2H-pyrazolo[4,3-b]pyridin-2-yl)ethanol] | 8.10
Cc1ccc(F)c(-c2cc(Nc3ccnc4cn[nH]c34)c(C)cn2)n1 [Example 11, N-(3′-fluoro-5,6′-dimethyl-2,2′-bipyridin-4-yl)-1H-pyrazolo[4,3-b]pyridin-7-amine] | 8.60
Cc1cccc(-c2cc(Nc3ccnc4cn(CC(N)=O)nc34)c(C)cn2)n1 [Example 12, 2-(7-(5,6′-dimethyl-2,2′-bipyridin-4-ylamino)-2H-pyrazolo[4,3-b]pyridin-2-yl)acetamide] | 7.50
Cc1ccc(F)c(-c2cc(Nc3ccnc4cnn(CC(N)=O)c34)c(C)cn2)n1 [Example 13, 2-(7-(3′-fluoro-5,6′-dimethyl-2,2′-bipyridin-4-ylamino)-1H-pyrazolo[4,3-b]pyridin-1-yl)acetamide] | 8.60
Cc1ccc(F)c(-c2cc(Nc3ccnc4cn(CC(N)=O)nc34)c(C)cn2)n1 [Example 14, 2-(7-(3′-fluoro-5,6′-dimethyl-2,2′-bipyridin-4-ylamino)-2H-pyrazolo[4,3-b]pyridin-2-yl)acetamide] | 8.00
Fc1ccc(Cl)cc1-c1cc(Nc2ccnc3cn(CC4CCOCC4)nc23)ccn1 [Example 23, N-(2-(5-chloro-2-fluorophenyl)pyridin-4-yl)-2-((tetrahydro-2H-pyran-4-yl)methyl)-2H-pyrazolo[4,3-b]pyridin-7-amine] | 6.50
Fc1ccc(Cl)cc1-c1cc(Nc2ccnc3cn(CC4CCCO4)nc23)ccn1 (stereo not shown) [Example 25, N-(2-(5-chloro-2-fluorophenyl)pyridin-4-yl)-2-((tetrahydrofuran-2-yl)methyl)-2H-pyrazolo[4,3-b]pyridin-7-amine] | 5.60
CCS(=O)(=O)n1cc2nccc(Nc3cc(-c4cc(Cl)ccc4F)ncc3C)c2n1 [Example 56, N-(2-(5-chloro-2-fluorophenyl)-5-methylpyridin-4-yl)-2-(ethylsulfonyl)-2H-pyrazolo[4,3-b]pyridin-7-amine] | 7.90
Cc1cc(Nc2ccnc3cn[nH]c23)cc(-c2cc(Cl)ccc2F)n1 [Example 57, N-(2-(5-chloro-2-fluorophenyl)-6-methylpyridin-4-yl)-1H-pyrazolo[4,3-b]pyridin-7-amine] | 7.40
CCS(=O)(=O)n1cc2nccc(Nc3cc(C)nc(-c4cc(Cl)ccc4F)c3)c2n1 [Example 61, N-(2-(5-chloro-2-fluorophenyl)-6-methylpyridin-4-yl)-2-(ethylsulfonyl)-2H-pyrazolo[4,3-b]pyridin-7-amine] | 6.60
Cc1ccc(F)c(-c2cc(Nc3ccnc4c[nH]nc34)ccn2)n1 [Example 64, N-(3′-fluoro-6′-methyl-2,2′-bipyridin-4-yl)-2H-pyrazolo[4,3-b]pyridin-7-amine] | 6.90
Cc1ccc(F)c(-c2cc(Nc3ccnc4cn(CCO)nc34)ccn2)n1 [Example 72, 2-(7-(3′-fluoro-6′-methyl-2,2′-bipyridin-4-ylamino)-2H-pyrazolo[4,3-b]pyridin-2-yl)ethanol] | 6.80
Cc1ccc(F)c(-c2cc(Nc3ccnc4cn(CC(N)=O)nc34)ccn2)n1 [Example 84, 2-(7-(3′-fluoro-6′-methyl-2,2′-bipyridin-4-ylamino)-2H-pyrazolo[4,3-b]pyridin-2-yl)acetamide] | 7.50

The remaining lines, values ahead:

pIC50 | SMILES
5.80 | Fc1ccc(Cl)cc1-c1cc(Nc2ccnc3cnn(CC4CCOCC4)c23)ccn1 [Example 24, N-(2-(5-chloro-2-fluorophenyl)pyridin-4-yl)-1-((tetrahydro-2H-pyran-4-yl)methyl)-1H-pyrazolo[4,3-b]pyridin-7-amine]
5.60 | Fc1ccc(Cl)cc1-c1cc(Nc2ccnc3cnn(CC4CCNCC4)c23)ccn1 [Example 26, N-(2-(5-chloro-2-fluorophenyl)pyridin-4-yl)-1-(piperidin-4-ylmethyl)-1H-pyrazolo[4,3-b]pyridin-7-amine]
7.30 | NC(=O)n1ncc2nccc(Nc3ccnc(-c4cc(Cl)ccc4F)c3)c21 [Example 30, 7-(2-(5-chloro-2-fluorophenyl)pyridin-4-ylamino)-1H-pyrazolo[4,3-b]pyridine-1-carboxamide]
6.60 | CN(C)C(=O)Cn1ncc2nccc(Nc3ccnc(-c4cc(Cl)ccc4F)c3)c21 [Example 38, 2-(7-(2-(5-chloro-2-fluorophenyl)pyridin-4-ylamino)-1H-pyrazolo[4,3-b]pyridin-1-yl)-N,N-dimethylacetamide]
6.50 | O=C1NCCN1CCn1ncc2nccc(Nc3ccnc(-c4cc(Cl)ccc4F)c3)c21 [Example 41, 1-(2-(7-(2-(5-chloro-2-fluorophenyl)pyridin-4-ylamino)-1H-pyrazolo[4,3-b]pyridin-1-yl)ethyl)imidazolidin-2-one]
6.50 | O=C(Cn1ncc2nccc(Nc3ccnc(-c4cc(Cl)ccc4F)c3)c21)N1CCOCC1 [Example 42, 2-(7-(2-(5-chloro-2-fluorophenyl)pyridin-4-ylamino)-1H-pyrazolo[4,3-b]pyridin-1-yl)-1-morpholinoethanone]
7.50 | NC(=O)Cn1ncc2nccc(Nc3ccnc(-c4cc(Cl)ccc4F)c3)c21 [Example 44, 2-(7-(2-(5-chloro-2-fluorophenyl)pyridin-4-ylamino)-1H-pyrazolo[4,3-b]pyridin-1-yl)acetamide]
7.30 | CC(C(N)=O)n1cc2nccc(Nc3ccnc(-c4cc(Cl)ccc4F)c3)c2n1 (stereo not shown) [Example 45, 2-(7-(2-(5-chloro-2-fluorophenyl)pyridin-4-ylamino)-2H-pyrazolo[4,3-b]pyridin-2-yl)propanamide]
6.50 | CCNC(=O)n1ncc2nccc(Nc3cc(C)nc(-c4cc(Cl)ccc4F)c3)c21 [Example 59, 7-(2-(5-chloro-2-fluorophenyl)-6-methylpyridin-4-ylamino)-N-ethyl-1H-pyrazolo[4,3-b]pyridine-1-carboxamide]
7.90 | CCNC(=O)n1ncc2nccc(Nc3ccnc(-c4cc(Cl)c(F)cc4F)c3)c21 [Example 62, 7-(2-(5-chloro-2,4-difluorophenyl)pyridin-4-ylamino)-N-ethyl-1H-pyrazolo[4,3-b]pyridine-1-carboxamide]
7.40 | CNC(=O)n1ncc2nccc(Nc3ccnc(-c4nc(C)ccc4F)c3)c21 [Example 74, 7-(3′-fluoro-6′-methyl-2,2′-bipyridin-4-ylamino)-N-methyl-1H-pyrazolo[4,3-b]pyridine-1-carboxamide]
7.60 | CNC(=O)n1ncc2nccc(Nc3ccnc(-c4cc(C)ccc4F)c3)c21 [Example 75, 7-(2-(2-fluoro-5-methylphenyl)pyridin-4-ylamino)-N-methyl-1H-pyrazolo[4,3-b]pyridine-1-carboxamide]
6.20 | Cc1ccc(F)c(-c2cc(Nc3ccnc4cnn(C5CCN(S(C)(=O)=O)CC5)c34)ccn2)c1 [Example 78, N-(2-(2-fluoro-5-methylphenyl)pyridin-4-yl)-1-(1-(methylsulfonyl)piperidin-4-yl)-1H-pyrazolo[4,3-b]pyridin-7-amine]
7.50 | CCNC(=O)n1ncc2nccc(Nc3ccnc(-c4cc(C)ccc4F)c3)c21 [Example 80, N-ethyl-7-(2-(2-fluoro-5-methylphenyl)pyridin-4-ylamino)-1H-pyrazolo[4,3-b]pyridine-1-carboxamide]
7.60 | Cc1ccc(F)c(-c2cc(Nc3ccnc4cnn(CC(N)=O)c34)ccn2)n1 [Example 85, 2-(7-(3′-fluoro-6′-methyl-2,2′-bipyridin-4-ylamino)-1H-pyrazolo[4,3-b]pyridin-1-yl)acetamide]
